Molecules are shown by their SMILES.

The Kd is the concentration at which binding is half-saturated.

The target in one experiment is Gal-1 (Homo sapiens, UniProt P09382). Nature of the experiment: Fluorescence anisotropy assay, compound as inhibitor of galectin / fluorescein tagged saccharide probe interaction. It counts as binding. How it is done: (§1) The affinity of Example 1-29 for galectins were determined by a fluorescence anisotropy assay where the compound was used as an inhibitor of the interaction between galectin and a fluorescein tagged saccharide probe as described Sörme, P., Kahl-Knutsson, B., Huflejt, M., Nilsson, U. J., and Leffler H. (2004) Fluorescence polarization as an analytical tool to evaluate galectin-ligand interactions. Anal. Biochem. 334: 36-47, (Sörme et al., 2004) and Monovalent interactions of Galectin-1 By Salomonsson, Emma; Larumbe, Amaia; Tejler, Johan; Tullberg, Erik; Rydberg, Hanna; Sundin, Anders; Khabut, Areej; Frejd, Torbjorn; Lobsanov, Yuri D.; Rini, James M.; et al, From Biochemistry (2010), 49(44), 9518-9532, (Salomonsson et al., 2010).
For orientation: Polarisation of emitted light reports the rotation of a fluorescent probe.

The target in the next experiment is Gal-3 (Homo sapiens, UniProt P17931). The experiment is described as above. It counts as binding. How it is done:
as §1

Sequence of Gal-1 (P09382 whole entry): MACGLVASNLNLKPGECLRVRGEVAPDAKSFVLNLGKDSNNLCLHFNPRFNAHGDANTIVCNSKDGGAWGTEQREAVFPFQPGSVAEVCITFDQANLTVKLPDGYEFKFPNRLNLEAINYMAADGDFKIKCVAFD
Sequence of Gal-3 (P17931 whole entry): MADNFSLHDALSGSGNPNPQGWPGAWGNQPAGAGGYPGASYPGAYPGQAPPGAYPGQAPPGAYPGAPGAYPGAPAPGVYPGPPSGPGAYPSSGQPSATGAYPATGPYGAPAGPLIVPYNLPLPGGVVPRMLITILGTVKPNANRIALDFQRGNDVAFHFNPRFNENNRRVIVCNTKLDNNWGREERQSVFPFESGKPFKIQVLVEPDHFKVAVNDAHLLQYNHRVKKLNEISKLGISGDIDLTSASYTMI

Consider `Cc1nc2ccc(-n3cnnc3[C@@H]3O[C@H](CO)[C@H](O)[C@H](n4cc(-c5nc(Cl)cs5)nn4)[C@H]3O)cc2s1` [Example 1, 6-{3-{3-[4-(4-Chlorothiazol-2-yl)-1H-1,2,3-triazol-1-yl]-3-deoxy-β-D-galactopyranosyl}-4H-1,2,4-triazol-4-yl}-2-methylbenzothiazole], for which the Kd at Gal-1 was 750 nM; on Gal-3, 150 nM.

In the case of `Cc1nc2ccc(-n3cnnc3[C@@H]3O[C@H](CO)[C@H](O)[C@H](n4cc(-c5csc(N)n5)nn4)[C@H]3O)cc2s1` [Example 6, 6-{3-{3-[4-(2-Aminothiazol-4-yl)-1H-1,2,3-triazol-1-yl]-3-deoxy-β-D-galactopyranosyl}-4H-1,2,4-triazol-4-yl}-2-methylbenzothiazole], the Kd was determined as 1600 nM on Gal-1 and 1900 nM on Gal-3.

As for `Cc1nc2ccc(-n3cnnc3[C@@H]3O[C@H](CO)[C@H](O)[C@H](n4cc(-c5csc(O)n5)nn4)[C@H]3O)cc2s1` [Example 8, 6-{3-{3-Deoxy-3-[4-(2-hydroxythiazol-4-yl)-1H-1,2,3-triazol-1-yl]-β-D-galactopyranosyl}-4H-1,2,4-triazol-4-yl}-2-methylbenzothiazole], the Kd at Gal-1 is 320 nM; on Gal-3 it was 1900 nM.

As to `Cc1nnc([C@@H]2O[C@H](CO)[C@H](O)[C@H](n3cc(-c4nc(Cl)cs4)nn3)[C@H]2O)n1-c1cc(Cl)ccc1C(F)(F)F` [Example 9, 1-{3-{3-[4-(4-Chlorothiazol-2-yl)-1H-1,2,3-triazol-1-yl]-3-deoxy-β-D-galactopyranosyl}-5-methyl-4H-1,2,4-triazol-4-yl}-5-chloro-2-(trifluoromethyl)benzene], the figures for the dissociation constant (Kd) at Gal-1 and at Gal-3 were 290 nM and 41 nM, respectively.

`Cc1nc([C@@H]2O[C@H](CO)[C@H](O)[C@H](n3cc(-c4nccs4)nn3)[C@H]2O)n(-c2ccc3nc(C)sc3c2)n1` [Example 10, 6-{5-{3-Deoxy-3-[4-(2-thiazolyl)-1H-1,2,3-triazol-1-yl]β-D-galactopyranosyl}-3-methyl-1H-1,2,4-triazol-1-yl}-2-methylbenzothiazole]: the values for the Kd on Gal-1 and at Gal-3 were 5200 nM and 2300 nM, respectively.

With `Cc1csc(-c2cn([C@H]3[C@@H](O)[C@@H](CO)O[C@@H](c4nnc(C)n4-c4cc(Cl)ccc4C(F)(F)F)[C@@H]3O)nn2)n1` [Example 11, 5-Chloro-1-{3-{3-deoxy-3-[4-(4-methylthiazol-2-yl)-1H-1,2,3-triazol-1-yl]-β-D-galactopyranosyl}-5-methyl-4H-1,2,4-triazol-4-yl}-2-(trifluoromethyl)benzene], the values for the Kd at Gal-1 and on Gal-3 were 2100 nM and 700 nM, respectively.

With `Cc1nnc([C@@H]2O[C@H](CO)[C@H](O)[C@H](n3cc(-c4csc(O)n4)nn3)[C@H]2O)n1-c1cc(Cl)ccc1C(F)(F)F` [Example 12, 5-Chloro-1-{3-{3-deoxy-3-[4-(2-hydroxythiazol-4-yl)-1H-1,2,3-triazol-1-yl]β-D-galactopyranosyl}-5-methyl-4H-1,2,4-triazol-4-yl}-2-(trifluoromethyl)benzene], the dissociation constant Kd at Gal-1 was 190 nM; at Gal-3, 520 nM.

In the case of `Cc1nc([C@@H]2O[C@H](CO)[C@H](O)[C@H](n3cc(-c4csc(C)n4)nn3)[C@H]2O)n(-c2ccc3nc(C)sc3c2)n1` [Example 13, 6-{5-{3-Deoxy-3-[4-(2-methylthiazol-4-yl)-1H-1,2,3-triazol-1-yl]β-D-galactopyranosyl}-3-methyl-1H-1,2,4-triazol-1-yl}-2-methylbenzothiazole], the Kd on Gal-1 came to 9000 nM; at Gal-3, 1800 nM.

Regarding `Cc1nc([C@@H]2O[C@H](CO)[C@H](O)[C@H](n3cc(-c4cncs4)nn3)[C@H]2O)n(-c2ccc3nc(C)sc3c2)n1` [Example 14, 6-{5-{3-Deoxy-3-[4-(5-thiazolyl)-1H-1,2,3-triazol-1-yl]β-D-galactopyranosyl}-3-methyl-1H-1,2,4-triazol-1-yl}-2-methylbenzothiazole], the Kd on Gal-1 amounted to 19500 nM; at Gal-3, 2300 nM.

As for `Cc1nc([C@@H]2OC(CO)[C@H](O)C(n3cc(-c4csc(N)n4)nn3)C2O)n(-c2cc(Cl)ccc2C(F)(F)F)n1` (stereo partly shown) [Example 15], the Kd at Gal-1 amounted to 1500 nM; on Gal-3, 1300 nM.

For `Cc1nc([C@@H]2OC(CO)[C@H](O)C(n3cc(-c4nc(Cl)cs4)nn3)C2O)n(-c2cc(Cl)ccc2C(F)(F)F)n1` (stereo partly shown) [Example 16], the dissociation constant Kd came to 900 nM on Gal-1 and 39 nM at Gal-3.

Consider `CO[C@@H]1[C@@H](n2cc(-c3nc(Cl)cs3)nn2)[C@@H](O)[C@@H](CO)O[C@H]1c1nnc(C)n1-c1cc(Cl)ccc1C(F)(F)F` [Example 17, 1-{3-{3-[4-(4-Chlorothiazol-2-yl)-1H-1,2,3-triazol-1-yl]-3-deoxy-2-O-methyl-β-D-galactopyranosyl}-5-methyl-4H-1,2,4-triazol-4-yl}-5-chloro-2-(trifluoromethyl)benzene], for which the values for the Kd on Gal-1 and on Gal-3 were 520 nM and 26 nM, respectively.

Consider `Cc1nc([C@@H]2O[C@H](CO)[C@H](O)[C@H](n3cc(-c4nc(Cl)cs4)nn3)[C@H]2O)n(-c2cc(Cl)cnc2C2CC2)n1` [Example 18, 3-{5-{3-[4-(4-Chlorothiazol-2-yl)-1H-1,2,3-triazol-1-yl]-3-deoxy-β-D-galactopyranosyl}-3-methyl-1H-1,2,4-triazol-1-yl}-5-chloro-2-cyclopropylpyridine], for which the Kd is 660 nM at Gal-1 and 130 nM on Gal-3.

For the compound `Cc1nnc([C@@H]2O[C@H](CO)[C@H](O)[C@H](n3cc(-c4csc(N)n4)nn3)[C@H]2O)n1-c1cc(Cl)ccc1C(F)(F)F` [Example 19, 1-{3-{3-[4-(2-Aminothiazol-4-yl)-1H-1,2,3-triazol-1-yl]-3-deoxy-β-D-galactopyranosyl}-5-methyl-4H-1,2,4-triazol-4-yl}-5-chloro-2-(trifluoromethyl)benzene], the Kd was found to be 730 nM at Gal-1 and 820 nM on Gal-3.

As for `Cc1nnc([C@@H]2O[C@H](CO)[C@H](O)[C@H](n3cc(-c4nccs4)nn3)[C@H]2O)n1-c1cc(Cl)ccc1C(F)(F)F` [Example 20, 5-Chloro-1-{3-{3-deoxy-3-[4-(2-thiazolyl)-1H-1,2,3-triazol-1-yl]β-D-galactopyranosyl}-5-methyl-4H-1,2,4-triazol-4-yl}-2-(trifluoromethyl)benzene], the Kd was determined as 690 nM on Gal-1 and 150 nM at Gal-3.

`Cc1nc2ccc(-n3cnnc3[C@@H]3O[C@H](CO)[C@H](O)[C@H](n4cc(-c5nccs5)nn4)[C@H]3O)cc2s1` [Example 21, 6-{3-{3-Deoxy-3-[4-(2-thiazolyl)-1H-1,2,3-triazol-1-yl]-β-D-galactopyranosyl}-4H-1,2,4-triazol-4-yl}-2-methylbenzothiazole]: the Kd at Gal-1 came to 3000 nM; at Gal-3, 1200 nM.

Consider `Cc1csc(-c2cn([C@H]3[C@@H](O)[C@@H](CO)O[C@@H](c4nncn4-c4ccc5nc(C)sc5c4)[C@@H]3O)nn2)n1` [Example 22, 6-{3-{3-Deoxy-3-[4-(4-methylthiazol-2-yl)-1H-1,2,3-triazol-1-yl]-β-D-galactopyranosyl}-4H-1,2,4-triazol-4-yl}-2-methylbenzothiazole], for which the Kd at Gal-1 was 2400 nM; at Gal-3, 1800 nM.

Source of the values: patent US12441755B2, “Galactoside inhibitor of galectins” (GALECTO BIOTECH AB, priority 2019, dated 2025).
